Laboratory results from US11793801B2, “Treatment of pain and neurological conditions” (BioCorRx, Inc., priority 2020, dated 2023).
Where two headings read alike, the source gives them in different places.

Assays:
morphine addicted rats = experiment: opioid withdrawal signs in morphine addicted rats; assay type: in vivo
Sigma opiate sites = experiment: in vitro pharmacology at Sigma sites; assay type: binding
Delta (DOP) receptor = Delta (DOP) receptor (Homo sapiens, UniProt P41143); experiment: in vitro pharmacology at Delta (DOP) receptor; assay type: biochemical
histamine H1 receptor = histamine H1 receptor (Homo sapiens, UniProt P35367); experiment: in vitro antagonistic activity, histamine H1; assay type: biochemical
[1] = molecular target: cholinergic muscarinic receptor 3 (Homo sapiens, UniProt P20309); experiment: in vitro antagonistic activity, muscarinic 3; assay type: biochemical
dopamine D4 receptor = molecular target: T1, dopamine D4 receptor (Homo sapiens, UniProt P21917); experiment: in vitro antagonistic activity, dopamine D4; assay type: biochemical
T1 sequence (P21917 1-419): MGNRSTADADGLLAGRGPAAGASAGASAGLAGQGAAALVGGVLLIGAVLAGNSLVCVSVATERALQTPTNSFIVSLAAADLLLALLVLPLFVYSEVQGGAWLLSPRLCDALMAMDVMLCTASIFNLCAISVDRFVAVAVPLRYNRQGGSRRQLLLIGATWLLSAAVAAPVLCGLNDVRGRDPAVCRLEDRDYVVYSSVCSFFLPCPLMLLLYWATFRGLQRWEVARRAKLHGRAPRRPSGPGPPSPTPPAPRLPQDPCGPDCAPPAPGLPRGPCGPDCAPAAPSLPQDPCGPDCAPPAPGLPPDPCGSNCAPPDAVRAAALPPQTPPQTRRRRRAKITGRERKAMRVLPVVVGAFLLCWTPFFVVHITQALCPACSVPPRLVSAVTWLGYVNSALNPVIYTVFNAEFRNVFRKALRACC

[2] = molecular target: T2, cholinergic muscarinic receptor 1 (Homo sapiens, UniProt P11229); experiment: in vitro antagonistic activity, muscarinic 1; assay type: biochemical
T2 sequence (P11229 1-460): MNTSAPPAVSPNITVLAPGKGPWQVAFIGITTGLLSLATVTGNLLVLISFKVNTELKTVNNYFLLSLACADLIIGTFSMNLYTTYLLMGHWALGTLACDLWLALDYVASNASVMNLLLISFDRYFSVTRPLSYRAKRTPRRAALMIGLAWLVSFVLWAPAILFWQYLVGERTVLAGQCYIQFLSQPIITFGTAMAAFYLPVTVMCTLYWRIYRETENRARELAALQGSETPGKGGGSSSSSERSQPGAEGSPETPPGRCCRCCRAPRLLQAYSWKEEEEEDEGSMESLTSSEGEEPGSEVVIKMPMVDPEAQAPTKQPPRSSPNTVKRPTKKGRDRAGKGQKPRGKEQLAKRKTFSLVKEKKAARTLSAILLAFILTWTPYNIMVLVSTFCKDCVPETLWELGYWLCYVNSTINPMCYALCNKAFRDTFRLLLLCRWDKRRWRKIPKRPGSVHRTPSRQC

[3] = molecular target: T3, cholinergic muscarinic receptor 5 (Homo sapiens, UniProt P08912); experiment: in vitro antagonistic activity, muscarinic 5; assay type: biochemical
T3 sequence (P08912 1-532): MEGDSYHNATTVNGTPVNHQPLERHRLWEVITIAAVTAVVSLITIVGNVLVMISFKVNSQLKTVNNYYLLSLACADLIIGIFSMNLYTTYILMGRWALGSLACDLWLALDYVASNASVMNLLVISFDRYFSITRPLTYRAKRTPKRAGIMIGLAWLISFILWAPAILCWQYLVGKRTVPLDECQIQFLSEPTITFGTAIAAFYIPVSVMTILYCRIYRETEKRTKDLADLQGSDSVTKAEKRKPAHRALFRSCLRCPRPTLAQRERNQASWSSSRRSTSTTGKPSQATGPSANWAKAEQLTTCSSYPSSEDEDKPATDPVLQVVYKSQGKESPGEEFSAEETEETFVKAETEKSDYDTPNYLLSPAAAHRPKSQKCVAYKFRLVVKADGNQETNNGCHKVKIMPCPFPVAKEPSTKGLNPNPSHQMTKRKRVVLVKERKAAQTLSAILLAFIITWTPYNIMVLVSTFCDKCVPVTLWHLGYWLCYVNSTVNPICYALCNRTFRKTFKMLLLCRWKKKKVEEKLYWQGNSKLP

[4] = molecular target: T4, adrenergic receptor Alpha 2B (Homo sapiens, UniProt P18089); experiment: in vitro antagonistic activity, adrenergic Alpha 2B; assay type: biochemical
T4 sequence (P18089 1-450): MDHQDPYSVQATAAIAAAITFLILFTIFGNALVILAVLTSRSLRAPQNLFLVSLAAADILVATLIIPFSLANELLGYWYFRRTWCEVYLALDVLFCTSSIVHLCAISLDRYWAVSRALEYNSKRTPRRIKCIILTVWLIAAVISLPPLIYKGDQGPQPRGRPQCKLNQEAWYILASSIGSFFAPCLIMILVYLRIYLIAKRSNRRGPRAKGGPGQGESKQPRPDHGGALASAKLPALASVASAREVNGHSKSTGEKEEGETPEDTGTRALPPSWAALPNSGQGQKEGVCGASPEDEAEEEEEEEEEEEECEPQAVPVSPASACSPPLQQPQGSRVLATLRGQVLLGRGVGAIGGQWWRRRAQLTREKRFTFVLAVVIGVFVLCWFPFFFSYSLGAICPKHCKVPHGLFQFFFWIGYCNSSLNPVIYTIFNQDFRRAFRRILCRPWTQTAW

serotonin receptor 1A = molecular target: T5, serotonin receptor 1A (Homo sapiens, UniProt P08908); experiment: in vitro antagonistic activity, serotonin 1A; assay type: biochemical
T5 sequence (P08908 1-422): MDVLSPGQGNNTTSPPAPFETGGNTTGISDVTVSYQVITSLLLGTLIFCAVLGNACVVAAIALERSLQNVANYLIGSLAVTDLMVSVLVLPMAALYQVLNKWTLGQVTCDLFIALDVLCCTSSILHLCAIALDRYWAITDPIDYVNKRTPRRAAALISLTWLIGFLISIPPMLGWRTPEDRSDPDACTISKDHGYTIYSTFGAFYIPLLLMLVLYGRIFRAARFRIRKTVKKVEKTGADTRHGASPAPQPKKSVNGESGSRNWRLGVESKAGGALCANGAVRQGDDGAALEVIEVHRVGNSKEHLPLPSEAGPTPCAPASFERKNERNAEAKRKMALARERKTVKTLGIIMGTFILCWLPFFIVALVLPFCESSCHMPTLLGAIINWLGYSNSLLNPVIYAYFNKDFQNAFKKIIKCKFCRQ

[5] = molecular target: T6, adrenergic receptor Alpha 2C (Homo sapiens, UniProt P18825); experiment: in vitro antagonistic activity, adrenergic Alpha 2C; assay type: biochemical
T6 sequence (P18825 1-462): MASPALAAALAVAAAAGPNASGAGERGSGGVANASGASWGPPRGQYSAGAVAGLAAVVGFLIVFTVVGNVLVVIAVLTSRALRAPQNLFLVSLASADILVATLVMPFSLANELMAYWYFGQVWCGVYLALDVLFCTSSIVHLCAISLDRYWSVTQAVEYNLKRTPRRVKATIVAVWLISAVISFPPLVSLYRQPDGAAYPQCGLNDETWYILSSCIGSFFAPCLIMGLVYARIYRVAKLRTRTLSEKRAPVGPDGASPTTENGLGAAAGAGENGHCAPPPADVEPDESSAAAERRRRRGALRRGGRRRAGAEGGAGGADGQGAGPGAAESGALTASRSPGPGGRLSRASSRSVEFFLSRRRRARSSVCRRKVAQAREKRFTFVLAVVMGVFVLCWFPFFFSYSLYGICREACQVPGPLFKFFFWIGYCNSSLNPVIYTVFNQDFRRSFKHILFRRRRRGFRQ

[6] = molecular target: T7, adrenergic receptor Alpha 1B (Homo sapiens, UniProt P35368); experiment: in vitro antagonistic activity, adrenergic Alpha 1B; assay type: biochemical
T7 sequence (P35368 1-520): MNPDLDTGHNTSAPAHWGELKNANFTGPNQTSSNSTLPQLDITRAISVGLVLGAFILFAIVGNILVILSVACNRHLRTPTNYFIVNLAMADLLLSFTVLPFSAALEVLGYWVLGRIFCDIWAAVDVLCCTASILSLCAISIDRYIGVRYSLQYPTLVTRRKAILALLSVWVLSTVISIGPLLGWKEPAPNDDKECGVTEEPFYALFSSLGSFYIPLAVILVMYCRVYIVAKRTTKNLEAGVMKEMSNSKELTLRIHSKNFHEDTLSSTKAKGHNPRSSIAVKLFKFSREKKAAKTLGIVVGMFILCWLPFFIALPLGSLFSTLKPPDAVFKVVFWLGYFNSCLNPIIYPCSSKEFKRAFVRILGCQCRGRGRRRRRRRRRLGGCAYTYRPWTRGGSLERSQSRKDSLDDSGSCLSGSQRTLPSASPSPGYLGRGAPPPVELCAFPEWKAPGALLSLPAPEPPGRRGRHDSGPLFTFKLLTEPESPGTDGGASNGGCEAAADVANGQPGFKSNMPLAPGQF

[7] = molecular target: T8, cholinergic muscarinic receptor 4 (Homo sapiens, UniProt P08173); experiment: in vitro antagonistic activity, muscarinic 4; assay type: biochemical
T8 sequence (P08173 1-479): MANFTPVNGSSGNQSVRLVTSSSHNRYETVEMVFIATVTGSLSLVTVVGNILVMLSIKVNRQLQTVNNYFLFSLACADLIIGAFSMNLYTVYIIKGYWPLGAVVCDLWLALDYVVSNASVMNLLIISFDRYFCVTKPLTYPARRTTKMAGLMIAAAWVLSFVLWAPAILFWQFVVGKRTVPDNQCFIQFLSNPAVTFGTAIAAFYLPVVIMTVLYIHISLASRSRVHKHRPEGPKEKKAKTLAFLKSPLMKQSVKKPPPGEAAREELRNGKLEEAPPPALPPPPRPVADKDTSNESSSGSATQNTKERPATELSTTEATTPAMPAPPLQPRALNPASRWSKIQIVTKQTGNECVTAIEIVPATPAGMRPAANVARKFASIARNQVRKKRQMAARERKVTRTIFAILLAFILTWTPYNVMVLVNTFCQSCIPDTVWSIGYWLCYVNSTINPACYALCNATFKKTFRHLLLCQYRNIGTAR

Sequence of histamine H1 receptor (P35367 whole entry, species assumed): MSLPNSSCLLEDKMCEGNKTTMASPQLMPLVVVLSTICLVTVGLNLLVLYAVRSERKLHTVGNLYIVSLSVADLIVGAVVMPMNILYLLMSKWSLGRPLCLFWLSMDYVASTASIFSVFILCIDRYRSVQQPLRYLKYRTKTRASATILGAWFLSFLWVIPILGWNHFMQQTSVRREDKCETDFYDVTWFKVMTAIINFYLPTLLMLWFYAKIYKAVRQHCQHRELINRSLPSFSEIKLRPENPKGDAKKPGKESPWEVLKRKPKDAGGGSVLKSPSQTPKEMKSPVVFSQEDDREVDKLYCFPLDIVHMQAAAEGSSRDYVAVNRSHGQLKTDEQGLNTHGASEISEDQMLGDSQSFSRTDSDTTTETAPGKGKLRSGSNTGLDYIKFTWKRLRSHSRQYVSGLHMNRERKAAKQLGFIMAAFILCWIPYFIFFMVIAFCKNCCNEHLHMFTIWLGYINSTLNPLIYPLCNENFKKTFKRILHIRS
Sequence of Delta (DOP) receptor (P41143 whole entry): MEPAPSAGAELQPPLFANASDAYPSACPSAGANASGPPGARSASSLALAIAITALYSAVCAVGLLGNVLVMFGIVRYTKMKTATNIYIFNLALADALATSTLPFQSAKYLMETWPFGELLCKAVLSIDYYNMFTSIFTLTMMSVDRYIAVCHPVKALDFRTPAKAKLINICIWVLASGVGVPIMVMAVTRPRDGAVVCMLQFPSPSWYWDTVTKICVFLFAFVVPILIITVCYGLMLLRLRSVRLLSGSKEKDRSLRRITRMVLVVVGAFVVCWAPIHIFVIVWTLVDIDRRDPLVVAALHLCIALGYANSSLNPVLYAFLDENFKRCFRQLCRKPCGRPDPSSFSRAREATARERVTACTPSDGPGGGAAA
Sequence of cholinergic muscarinic receptor 3 (P20309 whole entry): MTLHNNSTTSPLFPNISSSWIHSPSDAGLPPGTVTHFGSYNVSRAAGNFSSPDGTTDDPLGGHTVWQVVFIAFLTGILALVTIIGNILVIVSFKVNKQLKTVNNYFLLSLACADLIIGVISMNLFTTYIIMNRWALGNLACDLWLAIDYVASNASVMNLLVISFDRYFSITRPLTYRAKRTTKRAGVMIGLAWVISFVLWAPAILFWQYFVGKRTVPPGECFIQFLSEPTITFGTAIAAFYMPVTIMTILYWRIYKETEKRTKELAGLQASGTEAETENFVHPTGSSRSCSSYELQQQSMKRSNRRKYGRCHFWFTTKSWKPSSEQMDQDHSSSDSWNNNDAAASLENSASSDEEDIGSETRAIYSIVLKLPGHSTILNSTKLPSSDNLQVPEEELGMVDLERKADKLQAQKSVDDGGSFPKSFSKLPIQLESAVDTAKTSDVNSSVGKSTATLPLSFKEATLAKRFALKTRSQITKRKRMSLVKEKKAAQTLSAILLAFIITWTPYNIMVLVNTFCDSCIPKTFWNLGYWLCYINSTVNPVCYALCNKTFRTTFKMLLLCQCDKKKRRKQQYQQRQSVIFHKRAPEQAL

Row | Structure (SMILES) | opioid withdrawal signs (morphine addicted rats) | Receptor Sigma: affinity (Sigma opiate sites) | Receptor Delta (DOP): mode of action (Delta (DOP) receptor) | activity at histamine H1 receptor (histamine H1 receptor) | activity at cholinergic muscarinic receptor 3 [1] | activity at dopamine D4 receptor (dopamine D4 receptor) | activity at cholinergic muscarinic receptor 1 [2] | activity at cholinergic muscarinic receptor 5 [3] | activity at adrenergic receptor Alpha 2B [4] | activity at serotonin receptor 1A (serotonin receptor 1A) | activity at adrenergic receptor Alpha 2C [5] | Receptor Sigma: affinity (Sigma opiate sites; listed as compound 1) | activity at adrenergic receptor Alpha 1B [6] | activity at cholinergic muscarinic receptor 4 [7]
1 | C=CCN1CC[C@]23c4c5ccc(O)c4O[C@H]2C(=O)CC[C@@]3(O)[C@H]1C5 [Naloxone, reference compound] | withdrawal effects | Weak | – | – | – | – | – | – | – | – | – | – | – | –
2 | O=C1CC[C@@]2(O)[C@H]3Cc4ccc(O)c5c4[C@@]2(CCN3CC2CC2)[C@H]1O5 [Naltrexone, reference compound] | – | Weak | – | – | – | – | – | – | – | – | – | – | – | –
3 | CCC(=O)NC1CC(C)N(CCc2ccccc2)CC1C (centres unmarked) [Compound 1, N-[2,5-dimethyl-1-(2-phenylethyl)piperidin-4-yl]propanamide] | few if any opioid withdrawal signs | High Affinity | Antagonist | antagonistic activity | antagonistic activity | antagonistic activity | antagonistic activity | antagonistic activity | antagonistic activity | antagonistic activity | antagonistic activity | further activity | antagonistic activity | antagonistic activity
